# Reference: the supplement of paper PMC10307832
# Experiments:
# Assay in all cases: relative viability (nuclei count vs DMSO), 5 days (fraction); higher = more cells survive
# [1] = tested on: NCI-H23
# Summary of the method: (§1)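 For relative viability, nuclei counts in treated wells were divided by those in vehicle wells. Lung cancer cell lines had been pin-tool dosed in 1536-well plates the day after seeding and cultured for 5 days, then fixed and stained in one step (final 0.05% Triton X-100, 1% formaldehyde, 1 ug/ml Hoechst) and imaged at 4×. Doses were one drug alone or a fixed anchor-drug dose plus five library-drug doses (not always all listed) in √10 steps, and values are duplicate-plate medians.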
# [2] = tested on: A-427
# Summary of the method: as §1
# [3] = tested on: NCI-H1563
# Summary of the method: as §1
# [4] = tested on: NCI-H1755
# Summary of the method: as §1
# [5] = tested on: NCI-H441
# Summary of the method: as §1
# [6] = tested on: SK-MES-1
# Summary of the method: as §1
# [7] = tested on: NCI-H596
# Summary of the method: as §1
# [8] = tested on: NCI-H520
# Summary of the method: as §1
# [9] = tested on: NCI-H1666
# Summary of the method: as §1
# [10] = tested on: ChaGo-K-1
# Summary of the method: as §1
# [11] = tested on: LOU-NH91
# Summary of the method: as §1
# [12] = tested on: COR-L 105
# Summary of the method: as §1
# [13] = tested on: NCI-H1734
# Summary of the method: as §1
# [14] = tested on: SW 900
# Summary of the method: as §1
# [15] = tested on: NCI-H2170
# Summary of the method: as §1
# [16] = tested on: NCI-H1975
# Summary of the method: as §1
# [17] = tested on: H3255
# Summary of the method: as §1
# [18] = tested on: EMC-BAC-2
# Summary of the method: as §1
# [19] = tested on: LK-2
# Summary of the method: as §1
# [20] = tested on: HCC-366
# Summary of the method: as §1
# [21] = tested on: PC-3 [JPC-3]
# Summary of the method: as §1
# [22] = tested on: EKVX
# Summary of the method: as §1
structure (smiles),measurement,setting,value
O=c1cc(-c2cccc3c2Sc2ccccc2S3)oc(N2CCOCC2)c1 + N=C(N)NC(=N)NCCc1ccccc1 [Phenformin] (partner 250 µM),relative viability,[1]; first compound 0.08 µM,0.811
same,relative viability,[1]; first compound 0.253 µM,0.96
same,relative viability,[1]; first compound 0.8 µM,0.901
same,relative viability,[1]; first compound 2.53 µM,0.714
same,relative viability,[1]; first compound 8 µM,0.959
same,relative viability,[2]; first compound 0.08 µM,0.282
same,relative viability,[2]; first compound 0.253 µM,0.313
same,relative viability,[2]; first compound 0.8 µM,0.376
same,relative viability,[2]; first compound 8 µM,0.35
same,relative viability,[3]; first compound 0.08 µM,0.626
same,relative viability,[3]; first compound 0.253 µM,0.689
same,relative viability,[3]; first compound 0.8 µM,0.617
same,relative viability,[3]; first compound 2.53 µM,0.633
same,relative viability,[3]; first compound 8 µM,0.611
same,relative viability,[4]; first compound 0.08 µM,0.625
same,relative viability,[4]; first compound 0.253 µM,0.694
same,relative viability,[4]; first compound 0.8 µM,0.597
same,relative viability,[4]; first compound 2.53 µM,0.545
same,relative viability,[4]; first compound 8 µM,0.653
same,relative viability,[5]; first compound 0.08 µM,0.854
same,relative viability,[5]; first compound 0.253 µM,1.2
same,relative viability,[5]; first compound 0.8 µM,0.895
same,relative viability,[5]; first compound 2.53 µM,0.903
same,relative viability,[5]; first compound 8 µM,0.904
same,relative viability,[6]; first compound 0.08 µM,0.681
same,relative viability,[6]; first compound 0.253 µM,0.762
same,relative viability,[6]; first compound 0.8 µM,0.649
same,relative viability,[6]; first compound 2.53 µM,0.642
same,relative viability,[6]; first compound 8 µM,0.666
same,relative viability,[7]; first compound 0.08 µM,0.808
same,relative viability,[7]; first compound 0.253 µM,0.812
same,relative viability,[7]; first compound 0.8 µM,0.921
same,relative viability,[7]; first compound 2.53 µM,0.756
same,relative viability,[7]; first compound 8 µM,0.887
same,relative viability,[8]; first compound 0.08 µM,0.505
same,relative viability,[8]; first compound 0.253 µM,0.507
same,relative viability,[8]; first compound 0.8 µM,0.479
same,relative viability,[8]; first compound 2.53 µM,0.372
same,relative viability,[8]; first compound 8 µM,0.619
same,relative viability,[9]; first compound 0.08 µM,0.601
same,relative viability,[9]; first compound 0.253 µM,0.644
same,relative viability,[9]; first compound 0.8 µM,0.578
same,relative viability,[9]; first compound 2.53 µM,0.572
same,relative viability,[9]; first compound 8 µM,0.585
same,relative viability,[10]; first compound 0.08 µM,0.463
same,relative viability,[10]; first compound 0.253 µM,0.53
same,relative viability,[10]; first compound 0.8 µM,0.56
same,relative viability,[10]; first compound 2.53 µM,0.344
same,relative viability,[10]; first compound 8 µM,0.509
same,relative viability,[11]; first compound 0.08 µM,0.611
same,relative viability,[11]; first compound 0.253 µM,0.675
same,relative viability,[11]; first compound 0.8 µM,0.658
same,relative viability,[11]; first compound 2.53 µM,0.6
same,relative viability,[11]; first compound 8 µM,0.741
same,relative viability,[12]; first compound 0.08 µM,0.454
same,relative viability,[12]; first compound 0.253 µM,0.471
same,relative viability,[12]; first compound 0.8 µM,0.466
same,relative viability,[12]; first compound 2.53 µM,0.507
same,relative viability,[12]; first compound 8 µM,0.47
same,relative viability,[13]; first compound 0.08 µM,0.36
same,relative viability,[13]; first compound 0.253 µM,0.45
same,relative viability,[13]; first compound 0.8 µM,0.417
same,relative viability,[13]; first compound 8 µM,0.436
same,relative viability,[14]; first compound 0.08 µM,0.645
same,relative viability,[14]; first compound 0.253 µM,0.627
same,relative viability,[14]; first compound 0.8 µM,0.441
same,relative viability,[14]; first compound 2.53 µM,0.567
same,relative viability,[14]; first compound 8 µM,0.597
same,relative viability,[15]; first compound 0.08 µM,0.427
same,relative viability,[15]; first compound 0.253 µM,0.444
same,relative viability,[15]; first compound 0.8 µM,0.431
same,relative viability,[15]; first compound 2.53 µM,0.319
same,relative viability,[15]; first compound 8 µM,0.444
same,relative viability,[16]; first compound 0.08 µM,0.42
same,relative viability,[16]; first compound 0.253 µM,0.488
same,relative viability,[16]; first compound 0.8 µM,0.418
same,relative viability,[16]; first compound 2.53 µM,0.386
same,relative viability,[16]; first compound 8 µM,0.418
same,relative viability,[17]; first compound 0.08 µM,0.323
same,relative viability,[17]; first compound 0.253 µM,0.393
same,relative viability,[17]; first compound 0.8 µM,0.339
same,relative viability,[17]; first compound 2.53 µM,0.338
same,relative viability,[17]; first compound 8 µM,0.39
same,relative viability,[18]; first compound 0.08 µM,0.502
same,relative viability,[18]; first compound 0.253 µM,0.54
same,relative viability,[18]; first compound 0.8 µM,0.563
same,relative viability,[18]; first compound 2.53 µM,0.489
same,relative viability,[18]; first compound 8 µM,0.519
same,relative viability,[19]; first compound 0.08 µM,0.582
same,relative viability,[19]; first compound 0.253 µM,0.551
same,relative viability,[19]; first compound 0.8 µM,0.524
same,relative viability,[19]; first compound 2.53 µM,0.29
same,relative viability,[19]; first compound 8 µM,0.381
same,relative viability,[20]; first compound 0.08 µM,0.588
same,relative viability,[20]; first compound 0.253 µM,0.727
same,relative viability,[20]; first compound 0.8 µM,0.71
same,relative viability,[20]; first compound 2.53 µM,0.549
same,relative viability,[20]; first compound 8 µM,0.632
same,relative viability,[21]; first compound 0.08 µM,0.473
same,relative viability,[21]; first compound 0.253 µM,0.458
same,relative viability,[21]; first compound 0.8 µM,0.514
same,relative viability,[21]; first compound 2.53 µM,0.448
same,relative viability,[21]; first compound 8 µM,0.495
same,relative viability,[22]; first compound 0.08 µM,0.191
same,relative viability,[22]; first compound 0.253 µM,0.237
same,relative viability,[22]; first compound 0.8 µM,0.218
same,relative viability,[22]; first compound 2.53 µM,0.209
same,relative viability,[22]; first compound 8 µM,0.265
